Experimental findings from US4791116A, “N,N-diethyl-N'-[(8α)-1-ethyl-6-methyl-ergolin-8-yl]-sulfamide useful as prolactin secretion inhibitor, anti-parkinson agents and anti-depressant agents” (priority 1983, dated 1988) are described below.

For data set [1], the system named is central dopamine receptor. Description: Ungerstedt test: turning in rats lesioned unilaterally with 6-hydroxy-dopamine (anti-parkinson). Format: in vivo, rat. On the procedure:
In particular the compounds are useful as central dopamine receptor agents for the treatment of e.g. Morbus Parkinson as indicated in standard tests. For example in rates lesioned unilaterally in the nigro-neostratal dopamine pathway by the effect of a 6-hydroxy-dopamine injection in the substantia nigra the compounds at doses of between about 3 and about 30 mg/kg p.o., according to the method of U.Ungerstedt Acta.physiol.scand.Suppl.387, 69-93 (1971) and substantially the same as that described by J. M. Vigouret et al., Pharmacology 16 (Suppl.1) 156-193 (1978), induce turning in the direction of the non-denerved side over a long period of time, e.g. several hours.

The subject of data set [2] is implantation. Description: inhibition of implantation in female rats. Type of data set: in vivo. The settings on record: Rattus norvegicus, sc, read-out: ED50 Implantation. From the text: The effects are for an unexpectedly long period e.g. several hours.
Data set [3] is described as follows: tolerability in the beagle dog. The note with it: p.o. Format: in vivo.

Each structure is given as a SMILES string. Where two headings read alike, the source gives them in different places.

For the compound `CCN(CC)S(=O)(=O)N[C@H]1C[C@@H]2c3cccc4c3c(cn4CC)C[C@H]2N(C)C1` [Example 1, N,N-Diethyl-N'-[(8α)-1-ethyl-6-methyl-ergolin-8-yl]-sulfamide], the “Ungerstedt test, No of rotations” value in data set [1] (3 mg/kg p.o., over 7 hours) was found to be 774. Further, in data set [1] (comparison with prolactin secretion tests), the “anti-parkinson activity relative to prolactin secretion activity” value was “particularly patent anti-parkinson activity relative to prolactin secretion activity”. Also, the ED50 in data set [2] (female rats, s.c.) was 0.23 mg/kg. The emetic effects entry in data set [3] was “few emetic effects”.

As for `CCN(CC)S(=O)(=O)N[C@H]1C[C@@H]2c3cccc4c3c(cn4C(C)C)C[C@H]2N(C)C1` [Example 2, N,N-Diethyl-N'-[(8α)-1-isopropyl-6-methylergolin-8-yl]sulfamide], the “Ungerstedt test, No of rotations” value in data set [1] (3 mg/kg p.o., over 7 hours) is given as 1608. For the same compound, in data set [2] (female rats, s.c.), the median effective dose (ED50) was 0.08 mg/kg.

For `CC(C)C[C@H]1C(=O)N2CCC[C@H]2[C@]2(O)O[C@](NC(=O)[C@@H]3C=C4c5cccc6[nH]c(Br)c(c56)C[C@H]4N(C)C3)(C(C)C)C(=O)N12` [Bromocriptine, reference compound], the “Ungerstedt test, No of rotations” value in data set [1] (at 0.1 mg/kg s.c.) is reported as 80. In addition, the ED50 in data set [2] came out at 0.75 mg/kg.
